As usually defined, the IC50 is the concentration needed to halve the response being measured.

The assay has as its target hDGAT2 (Homo sapiens (Human), UniProt Q96PD7). Put plainly: In vitro DGAT2 assay, determination of IC50 values. The assay is classed as biochemical. Conditions: geometric mean; hDGAT2 membrane fraction, [1-14C]decanoyl-CoA and 1,2-didecanoyl-sn-glycerol substrates.

Sequence of hDGAT2 (Q96PD7 whole entry): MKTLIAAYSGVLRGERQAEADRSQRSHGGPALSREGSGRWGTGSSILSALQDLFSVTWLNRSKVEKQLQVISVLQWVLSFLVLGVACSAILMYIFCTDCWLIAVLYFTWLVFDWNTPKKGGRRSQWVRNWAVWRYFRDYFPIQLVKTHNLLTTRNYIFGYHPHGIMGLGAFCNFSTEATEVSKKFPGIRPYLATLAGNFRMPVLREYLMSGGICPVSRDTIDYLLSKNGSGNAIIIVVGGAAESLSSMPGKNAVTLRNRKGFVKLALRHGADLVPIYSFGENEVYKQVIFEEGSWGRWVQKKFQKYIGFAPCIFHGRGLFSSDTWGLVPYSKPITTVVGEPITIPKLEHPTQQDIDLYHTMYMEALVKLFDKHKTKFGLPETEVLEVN
Protocol: For the expression of hDGAT2, SF9 cells (20 L) grown in Sf900II media were infected with hDGAT2 baculovirus at a multiplicity of infection of 1 in a Wave Bioreactor System 20/50P wave bag (GE Healthcare). After 40 hours of infection, the cells were then harvested by centrifugation at 5,000×g. The cell pellets were washed by resuspending in phosphate buffered saline (PBS) and collected by centrifugation at 5,000×g. The cell paste was flash frozen in liquid N2 and stored at −80° C. until needed. All operations below were at 4° C. unless otherwise noted. The cells were resuspended in lysis buffer (50 mM Tris-HCl, pH 8.0, 250 mM sucrose) including 1 mM ethylenediaminetetraacetic acid (EDTA) and the complete protease inhibitor cocktail (Roche Diagnostics) at a ratio of 3 ml buffer per 1 g cell paste. The cells were lysed by dounce homogenizer. The cell debris was removed by centrifugation at 1,000×g for 20 min, and the supernatant was centrifuged at 100,000×g for 1 hour. […]
For determination of IC50 values, the reactions were carried out in 384-well white Polyplates (Perkin Elmer) in a total volume of 20 μL. […] Plates were centrifuged at 2,000×g for 1 minute in an Allegra 6R Centrifuge (Beckman Coulter) and then were sealed again with fresh covers before reading in a 1450 Microbeta Wallac Trilux Scintillation Counter (Perkin Elmer).

Take `CCOc1cccnc1Oc1cncc(-c2ncc(C(=O)N[C@H]3CCOC3)cn2)c1` [Example 1, (S)-2-(5-((3-ethoxypyridin-2-yl)oxy)pyridin-3-yl)-N-(tetrahydrofuran-3-yl)pyrimidine-5-carboxamide]: the IC50 turned out to be 17.2 nM.

The values above are taken from patent US20250066337A1, “Amorphous Form of (S)-2-(5-((3-Ethoxypyridin-2-YL)Oxy)Pyridin-3-YL)-N-(Tetrahydrofuran-3-YL)Pyrimidine-5-Carboxamide” (Pfizer Inc., priority 2021, published 2025).
